Measurements published in patent publication US11472771B2, “Process for making amino diaryl ethers and amino diaryl ethers hydrochloride salts” (CELLESTIA BIOTECH AG, priority 2018, dated 2022).

What was measured:
Type in all cases: physicochemical
[1] = Forced degradation: solid state with thermal stress
Procedure: Instrumentation: • Light stability chamber: Solarbox 1500e • Oven: Salvis Vacuum drying oven VC-20 • Heating unit: Ikamag RET-GS with IKA ETS SD and stainless steel heating block • Vials: Supelco V-Vials and screw caps with PTFE septa • Gas tight vials: Agilent 10 mL HS-GC clear glass vials and crimp caps with Not applicable PTFE septa • Quartz glass cuvette: Hellma precision cuvette Suprasil, Type 117.100-QS, 10 mm path length, screw capped with silicone septa • HPLC: As described above
The HPLC test method described above was used to determine the assay and purity of 6-(4-(tert-butyl)phenoxy)pyridin-3-amine monohydrochloride before the forced degradation experiments and the area % content of individual impurities and degradation products in the 6-(4-(tert-butyl)phenoxy)pyridin-3-amine monohydrochloride samples obtained from the degradation experiments.
The assay and the purity of 6-(4-(tert-butyl)phenoxy)pyridin-3-amine monohydrochloride were determined using HPLC with UV detection at 220 nm utilizing the area normalization methodology for purity determination and external standard calibration for assay determination. During all experiments the UV spectra from 200 nm to 950 nm have been recorded and also the peak purity of 6-(4-(tert-butyl)phenoxy)pyridin-3-amine monohydrochloride was assessed.
Approximately 20.4 mg and 50.1 mg of 6-(4-(tert-butyl)phenoxy)pyridin-3-amine monohydrochloride were weighed into a Supelco V-Vial. The vial was closed with the screw cap and stored in the heating block of the heating unit operated at 100° C.±5° C. for 20 h (20 mg sample) and 68 h (50 mg sample), respectively.
After storage at 100° C. for the intended time each sample was cooled down to room temperature and the content of the vial was dissolved in about 4 mL of the sample solvent (acetonitrile/water 3:1 v/v). The obtained solution was quantitatively transferred into a 25 mL volumetric flask (20 mg sample), or to a 50 mL volumetric flask (50 mg sample), respectively. […]

[2] = Solubility in water at various pH-values; conditions: for calculated concentration charged: soluble
Procedure: The solubilities in water of 6-(4-(tert-butyl)phenoxy)pyridin-3-amine (formula (Ia)) and the monohydrochloride salt thereof, i.e. 6-(4-(tert-butyl)phenoxy)pyridin-3-amine monohydrochloride, were assessed at various pH-values according to Tables 3 and 4. The solubility in water of 6-(4-(tert-butyl)phenoxy)pyridin-3-amine (formula (Ia)) according to Table 3 was assayed as follows: Free base 500 mg were charged into 14 mL of acidic media at pH=2, 4, at neutral pH=7 and basic pH=10 to afford suspensions within calculated concentration of appr. 35 mg/mL. The solubility in water of 6-(4-(tert-butyl)phenoxy)pyridin-3-amine monohydrochloride according to Table 4 was assayed as follows: HCl salt 100 mg each were charged into acidic media at pH=2 and 4 and neutral media pH=7 to furnish solutions. Most important observation was to that at a neutral solution at pH=7 drops down to pH=1 by charging HCl salt 100 mg.

[3] = Stability study, storage 5° C.
Procedure: For 6-(4-(tert-butyl)phenoxy)pyridin-3-amine monohydrochloride two different types of stability studies were performed including short-term and long-term stability studies, respectively, […] In terms of analytical determinations six tests were involved including appearance, assay free base mean and purity mean, water, IR and XRPD. Appearance was determined by visual inspection. The product should be a white or off-white powder. Water content was determined according to USP <921> coulometric method. Identification of 6-(4-(tert-butyl)phenoxy)pyridin-3-amine monohydrochloride by IR spectroscopy was done according to USP <197>, comparing the spectrum obtained to that of the reference standard. X-Ray powder diffraction (XRPD) was performed according to USP <941> against the reference XRPD spectrum. Purity and assay of free base was done by HPLC-UV. Two methods were used. Mobile phases in the first method were water and acetonitrile. Mobile phases in the second method were water (0.5 mL of trifluoroacetic acid was added to 1000 mL of water) and acetonitrile (0.4 mL of trifluoroacetic acid was added to 1000 mL of acetonitrile). Equipment and chromatographic conditions for identification and determination of purity and assay of the 6-(4-(tert-butyl)phenoxy)pyridin-3-amine monohydrochloride by HPLC-UV according to the first method and the second method, respectively, are shown in Tables 5 and 6. [table] [table]

[4] = 15% acetic acid soln., pH solvent 2, 100 mg in 0.6 ml
[5] = Fluka 33643 (pH = 4), 100 mg in 1.4 ml
[6] = Fluka 33646 (pH = 7), 100 mg in 1.0 ml
[7] = 6 months stability studies, 55° C., 3 mths
[8] = 6 months stability studies, 55° C., 6 mths
[9] = 6 months stability studies, 55° C., Release data
[10] = 36 months stability studies, 5° C., 6 mths
[11] = 36 months stability studies, 5° C., 9 mths
[12] = 36 months stability studies, 5° C., 12 mths
[13] = 36 months stability studies, 5° C., 18 mths
[14] = 36 months stability studies, 5° C., 24 mths

## CC(C)(C)c1ccc(Oc2ccc(N)cn2)cc1.Cl [6-(4-(tert-butyl)phenoxy)pyridin-3-amine monohydrochloride]
[1]; 100° C.
  stability in solid state: stable
[1]; solid state, after 68 h storage at 100° C.
  changes in the purity and the purity profile: No significant changes
[1]; solid state, storage at 100° C., accepted variability of the method ±2%
  decrease in the assay: ≤ 2%
[2]; [4]
  pH solution: 0
  calculated concentration charged: 166.66 mg/mL
[2]; 15% acetic acid soln., pH solvent 2, 100 mg in 0.6 ml, conc. 166.66 mg/mL
  soluble: yes
[2]; [5]
  pH solution: 1
  calculated concentration charged: 71.43 mg/mL
[2]; Fluka 33643 (pH = 4), 100 mg in 1.4 ml, conc. 71.43 mg/mL
  soluble: yes
[2]; [6]
  pH solution: 1
  calculated concentration charged: 100.00 mg/mL
[2]; Fluka 33646 (pH = 7), 100 mg in 1.0 ml, conc. 100.00 mg/mL
  soluble: yes
[2]; water, in words
  solubility in water: well-soluble
[3]; [7]
  Assay free base, mean: 87.2 % m/m
  IR, conforms to reference: complies
  Purity, mean: 99 % area
  Water: 0.02 % m/m
[3]; [8]
  Assay free base, mean: 87.6 % m/m
  IR, conforms to reference: complies
  Purity, mean: 99 % area
  Water: 0.02 % m/m
[3]; [9]
  Assay free base, mean: 89.4 % m/m
  IR, conforms to reference: complies
  Purity, mean: 100.0 % area
  Water: 0.01 % m/m
[3]; 36 months stability studies, 5° C., 3 mths
  Water: 0.02 % m/m
[3]; [10]
  Assay free base, mean: 87.5 % m/m
  Purity, mean: 100.0 % area
  Water: 0.02 % m/m
[3]; [11]
  Assay free base, mean: 89.6 % m/m
  Purity, mean: 100.0 % area
  Water: 0.03 % m/m
[3]; [12]
  Assay free base, mean: 87.3 % m/m
  Purity, mean: 100.0 % area
  Water: 0.02 % m/m
[3]; [13]
  Assay free base, mean: 87.0 % m/m
  Purity, mean: 100.0 % area
  Water: 0.01 % m/m
[3]; [14]
  Assay free base, mean: 88.3 % m/m
  Purity, mean: 100.0 % area
  Water: 0.02 % m/m
[3]; 36 months stability studies, 5° C., Release data
  Water: 0.01 % m/m
